Values quoted from earlier work, collected in US20060198926A1, “ALPHA-PYRONE COMPOSITION FOR CONTROLLING CRAVING AND AS A SUBSTITUTE FOR ALCOHOL” (priority 1999, published 2006).

Test system: dopaminergic neurons of the nucleus accumbens
Settings: administered in vivo by microdialysis into the nucleus accumbens (Baum 1998)

Row | SMILES | levels of dopamine in the nucleus accumbens
1 | COc1cc(/C=C/c2ccccc2)oc(=O)c1 [desmethoxyyangonin] | increase in dopamine
2 | COc1ccc(/C=C/c2cc(OC)cc(=O)o2)cc1 [yangonin] | decreases dopamine to undetectable levels
